{"source": "patent US20250129045A1", "about": "“SMALL MOLECULE PIM AND MTOR KINASE INHIBITOR AND METHODS OF USE THEREOF” (Arizona Board of Regents on Behalf of the University of …, priority 2022, published 2025)", "key": {"PC3-LN4 cells [1]": {"tested_on": "PC3-LN4 cells", "experiment": "Cell growth assay (IncuCyte) in PC3-LN4 prostate cancer cells", "assay_type": "cell-based, human", "details": "combination with AZD5363 or BKM120", "experimental": "(§1) FIGS. 7A-7I show inhibition of VBT5445 (VBT) on Pim1 and EDC3 binding and phosphorylation. FIG. 7A: In vitro co-precipitation (Co-PPT) assay was performed with recombinant EDC3 and biotinylated Pim1 using Streptavidin beads with increasing concentrations of the Pim inhibitor VBT5445 (VBT). FIG. 7B: Kinase assays were performed with recombinant EDC3 and Pim1 with increasing concentrations of VBT. FIG. 7C: Cell lysates from PC3-LN4 cells cultured with DMSO, 10 μM VBT, 3 μM AZD5363 (AKTi) and the combination for 6 hrs were subjected to western blotting (WB). […] WBs were performed using the indicated antibodies. FIG. 7E: PC3-LN4 cells were seeded into 48 well plate and incubated with either DMSO, VBT, AZD5363 or the combination, for 4.5 days. A real-time imaging system (IncuCyte™) was used to measure cell proliferation using a non-label cell monolayer confluence approach. FIG. 7F-7H: GFP image in PC3 LN4 GFP EDC3 expressing cells treated with PIMi: VBT (5 μM) and VBT (5 μM)+AZD5363 (3 μM) for 6 hrs.\n(§2) Cell growth assay: Tumor cells were seeded into 48 well plates (1000 cells/well) and treated with varied agents. The Incucyte real-time imaging system (Incucyte) was used to measure cell proliferation using a non-label cell monolayer confluence approach. The images were captured every 12 h. Graphs were generated using an integrated confluence metric as an alternative for cell numbers. At the end of the study cell growth was visualized by crystal violet staining."}, "PC3-LN4 cells [2]": {"tested_on": "PC3-LN4 cells", "experiment": "Western blotting of PC3-LN4 cell lysates", "assay_type": "cell-based, human", "details": "PC3-LN4 cells with CRISPR/CAS9 knockout of TSC2 or DEPDC5"}, "Pim1 and EDC3 binding": {"target": "Pim1 and EDC3 binding (Homo sapiens, UniProt P11309)", "sequence (P11309 whole entry)": "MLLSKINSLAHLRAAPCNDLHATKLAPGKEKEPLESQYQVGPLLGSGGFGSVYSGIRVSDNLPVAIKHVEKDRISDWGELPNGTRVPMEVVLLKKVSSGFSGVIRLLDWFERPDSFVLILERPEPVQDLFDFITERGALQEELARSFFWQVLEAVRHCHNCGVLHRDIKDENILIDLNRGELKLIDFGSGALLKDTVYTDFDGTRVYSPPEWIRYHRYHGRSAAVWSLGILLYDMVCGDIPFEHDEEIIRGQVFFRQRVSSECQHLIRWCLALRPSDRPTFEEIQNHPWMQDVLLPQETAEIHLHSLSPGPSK", "experiment": "In vitro co-precipitation / co-immunoprecipitation of EDC3 with Pim1", "details": "VBT-5445 at concentrations higher than 1 μM, listed as VBT 1-34", "experimental": "as §1"}, "[3]": {"tested_on": "PANC1 pancreatic cancer cells", "experiment": "Growth inhibition of PANC1 pancreatic cancer cells", "assay_type": "cell-based", "experimental": "as §2\nBecause of ease of growth, PANC1 pancreatic cancer cells were used to test the activity of derivatives of VBT-5445 (FIG. 14). […] Using a doxycycline inducible Pim kinase vector in these tumor cells, this inhibition of phosphorylation was proportional to the level of Pim in these cells (FIG. 9). […] Inhibition of mTORC1 is known to stimulate the feedback activation of mTORC2 leading to AKT phosphorylation. […] The effect of these compounds on mTORC1 and 2 was still evident in PC3-LN4 cells that contained a knockout (KO) using CRISPR/CAS9 of either TSC2 or DEPDC5 (FIG. 12, lanes 4-9). TSC2 KO activated the Rheb GTPase while DEPDC5 KO activated the RAG GTPase both of which stimulate mTORC1 activity. Thus, GRG compounds were capable of inhibiting mTORC1 activity even when this kinase was highly activated."}, "A549 lung cancer": {"tested_on": "A549 lung cancer", "experiment": "A549 lung cancer growth (crystal violet, 7 days)", "assay_type": "cell-based", "details": "7 days of growth", "experimental": "Cells were plated at 1000 cells per well and 24 h later treated with GRG compounds. After 7 days of growth, tumor cells were fixed with 4% paraformaldehyde, stained with 0.5% crystal violet in methanol and lysed in SDS. The absorbance of six samples treated with each compound or DMSO control was read at 570 nm. The error bars represent the Standard Deviation of these measurements"}}, "note": "“Also recorded” adds a separate entry of the source. Where two headings read alike, the source gives them in different places."}
{"smiles": "O=c1c(CNCc2cc(Br)ccn2)cc2ccc(Cl)cc2n1CCOc1ccccc1", "note": "[GRG-1-34, 3-((((4-bromopyridin-2-yl)methyl)amino)methyl)-7-chloro-1-(2-phenoxyethyl) quinolin-2 (1H)-one]", "values": [{"measurement": "prostate cancer (PC3-LN4) growth, in combination with AKT/PI3K inhibitor", "setting": "PC3-LN4 cells [1]", "value": "enhanced"}, {"measurement": "mTORC activity in TSC2 or DEPDC5 KO prostate tumor cells", "setting": "PC3-LN4 cells [2]", "value": "inhibits mTORC"}, {"measurement": "co-immunoprecipitation of EDC3 with Pim", "setting": "Pim1 and EDC3 binding", "value": "block the co-immunoprecipitation of EDC3 with Pim; also recorded: blocks co-immunoprecipitation of EDC3 with Pim"}, {"measurement": "growth inhibitory activity against PANC1 pancreatic cancer cells", "setting": "[3]", "value": "most active"}, {"measurement": "growth inhibitory activity against PANC1 pancreatic cancer cells", "setting": "[3]; listed as VBT 1-34", "value": "inhibits the growth; also recorded: shows activity"}, {"measurement": "A549 lung cancer growth", "setting": "A549 lung cancer", "value": "Inhibition"}, {"measurement": "A549 lung cancer growth", "setting": "A549 lung cancer; listed as VBT 1-34", "value": "shows activity"}]}
